Values joined by “and” are separate entries in the source; they are usually repeats but may differ in a detail not shown here. Identical values can stand only once.
System: 996289-038-R-J1-PDC complex spheroid viability
Assay: Anticancer human tumor 996289-038-R-J1-PDC patient-derived colon adenocarcinoma cell line growth inhibition [CLK]
Details: for viability, T/C: stronger effect = lower value
Source text: A high-throughput screen of multi-cell type tumor spheroids was designed to identify active combinations of […] and targeted small molecules. Complex spheroids include a stromal component modeled by human endothelial cells (HUVEC) and fibroblasts modeled by human mesenchymal stem cells (MSCs). The concentration ranges selected for each drug and investigational agent were based upon clinically achievable concentrations if the clinical Cmax of the agent was known.
Compounds. The drugs and investigational agents: cirtuvivint (SM08502; NSC835563), CC-671 (NSC850746), vemurafenib (NSC761431), tapotoclax (NSC804041), sotorasib (NSC818433), adagrasib (NSC831453), MRTX-1133 (NSC836407), BAY2416964 (NSC825713), copanlisib (NSC816437), inavolisib (NSC800729), abemaciclib (NSC768073), osimertinib (NSC779217), entinostat (NSC756642), eltanexor (KPT-8602, NSC794443), venetoclax (NSC766270), ceralasertib (NSC777638), bortezomib (NSC756655), olaparib (NSC753686), talazoparib (NSC767125), alisertib (NSC759677), peposertib (NSC802822), gemcitabine (NSC613327), 5-fluorouracil (NSC19893), SN-38 (NSC673596), oxaliplatin (NSC266046), paclitaxel (NSC125973), and doxorubicin (NSC123127), were obtained from the National Cancer Institute (NCI) Developmental Therapeutics Program Chemical Repository. The FDA-approved anticancer drug set is available from the Developmental Therapeutics Program at https://dtp.cancer.gov/organization/dscb/obtaining/available plates.htm. […] The stock solutions were prepared in dimethyl sulfoxide (DMSO, Sigma-Aldrich, St. Louis, MO, cat. D2650), except for the platinum complexes which were prepared in saline (Quality Biological, Gaithersburg, MD, cat. 114-055-101), at 800-fold the tested concentration and stored at -70 degrees C prior to their use. All drugs and investigational agents were tested over a range starting from a high concentration at or near the clinical Cmax and decreasing in half-log increments. If the clinical Cmax for an agent had not been determined, the highest concentration tested was 10 microM.
Cell Culture. All cells were maintained in an incubator at 37 degrees C and 5% CO2 with 95% humidity. The PDC lines were cultured according to standard operating procedures established by the NCI PDMR. Briefly, all PDCs were thawed and cultured in Matrigel-coated flasks prepared with a working solution of 1X Ham's F-12 nutrient mix, without supplementation (Invitrogen, Waltham, MA, cat. 11765054), 100 U/mL penicillin-streptomycin (Invitrogen, cat. 15140122), and 2.5% Matrigel (Corning Inc., Corning, NY, cat. 354248) for the first three passages. The 947758-054-R-J2-PDC line was cultured in 6B/Colon 1A media, which includes advanced DMEM/F-12 (Thermo Fisher Scientific, cat. 12634028), 10 mM HEPES (Thermo Fisher Scientific, cat. 15630080), 1X GlutaMAX supplement (Thermo Fisher Scientific, cat. 35050061), 0.1 mg/mL primocin (InvivoGen, cat. ant-pm-2), 10% defined fetal bovine serum, heat inactivated (HyClone Laboratories Inc., cat. SH30070.03HI), 1.25 mM N-Acetyl-L-cysteine (Sigma-Aldrich, cat. A9165), 10 mM nicotinamide (Sigma-Aldrich, cat. N0636), 1X B-27 supplement (Thermo Fisher Scientific, cat. 17504044), 1X N-2 supplement (Thermo Fisher Scientific, cat. 17502048), and 10 microM Y-27632 dihydrochloride (Tocris Bioscience, cat. 1254). The 876862-298-R-J1-PDC was cultured in 6E media, which includes all 6B/Colon 1A media components plus 50% L-WRN conditioned media (ATCC, cat. CRL-3276), 50 ng/mL recombinant human EGF recombinant protein (hEGF; Thermo Fisher Scientific, cat. PHG0311), 10 ng/mL recombinant human fibroblast growth factor 10 (hGFG-10; PeproTech, cat. 100-26), 1 ng/mL recombinant human fibroblast growth factor 2 (hFGF-2; PeproTech, cat. 100-18B), and 1 µM prostaglandin E2 (PGE2; Tocris, cat. 2296). The 227483-062-R1-J1-PDC line was cultured in Panc media, containing all 6E components except hFGF-2, with the addition of 500 nM SB-431542 (Selleckchem, cat. S1067) and 10 nM gastrin (Tocris, cat. 3006). […]

[1] = curve of first compound, second compound 0.0316 µM
[2] = curve of first compound, second compound 0.1 µM
[3] = curve of first compound, second compound 0.316 µM
[4] = curve of first compound, second compound 1 µM
[5] = curve of first compound, second compound 3.16 µM
[6] = curve of first compound, second compound 10 µM
[7] = second compound 0.0316 µM, first compound 0.0316 µM
[8] = second compound 0.0316 µM, first compound 0.1 µM
[9] = second compound 0.0316 µM, first compound 0.316 µM
[10] = second compound 0.0316 µM, first compound 1 µM
[11] = second compound 0.0316 µM, first compound 3.16 µM
[12] = second compound 0.0316 µM, first compound 10 µM
[13] = second compound 0.1 µM, first compound 0.0316 µM
[14] = second compound 0.1 µM, first compound 0.1 µM
[15] = second compound 0.1 µM, first compound 0.316 µM
[16] = second compound 0.1 µM, first compound 1 µM
[17] = second compound 0.1 µM, first compound 3.16 µM
[18] = second compound 0.1 µM, first compound 10 µM
[19] = second compound 0.316 µM, first compound 0.0316 µM
[20] = second compound 0.316 µM, first compound 0.1 µM
[21] = second compound 0.316 µM, first compound 0.316 µM
[22] = second compound 0.316 µM, first compound 1 µM
[23] = second compound 0.316 µM, first compound 3.16 µM
[24] = second compound 0.316 µM, first compound 10 µM
[25] = second compound 1 µM, first compound 0.0316 µM
[26] = second compound 1 µM, first compound 0.1 µM
[27] = second compound 1 µM, first compound 0.316 µM
[28] = second compound 1 µM, first compound 1 µM
[29] = second compound 1 µM, first compound 3.16 µM
[30] = second compound 1 µM, first compound 10 µM
[31] = second compound 3.16 µM, first compound 0.0316 µM
[32] = second compound 3.16 µM, first compound 0.1 µM
[33] = second compound 3.16 µM, first compound 0.316 µM
[34] = second compound 3.16 µM, first compound 1 µM
[35] = second compound 3.16 µM, first compound 3.16 µM
[36] = second compound 3.16 µM, first compound 10 µM
[37] = second compound 10 µM, first compound 0.0316 µM
[38] = second compound 10 µM, first compound 0.1 µM
[39] = second compound 10 µM, first compound 0.316 µM
[40] = second compound 10 µM, first compound 1 µM
[41] = second compound 10 µM, first compound 3.16 µM
[42] = second compound 10 µM, first compound 10 µM
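Also: spheroids exposed to the agents for 7 days before readout.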

Nc1ccn(C2OC(CO)C(O)C2(F)F)c(=O)n1 (stereo not drawn) + CN1CCN(c2cc(C(=O)Nc3cc4cc(-c5cnn(C)c5)ccc4cn3)ccn2)CC1
IC50 [1]: 0.851 µM | IC50 [2]: 0.406 µM | IC50 [3]: 0.13 µM | IC50 [4]: < 0.0316 µM | IC50 [5]: < 0.0316 µM | IC50 [6]: < 0.0316 µM | viability, T/C [7]: 86.7% | viability, T/C [8]: 62.6% | viability, T/C [9]: 54.5% | viability, T/C [10]: 51.5% | viability, T/C [11]: 49.1% | viability, T/C [12]: 43.4% | viability, T/C [13]: 74.6% | viability, T/C [14]: 56.4% | viability, T/C [15]: 53.2% | viability, T/C [16]: 46.9% | viability, T/C [17]: 41.2% | viability, T/C [18]: 35.8% | viability, T/C [19]: 57.7% | viability, T/C [20]: 52% | viability, T/C [21]: 43.3% | viability, T/C [22]: 39.2% | viability, T/C [23]: 36.2% | viability, T/C [24]: 26% | viability, T/C [25]: 4.69% | viability, T/C [26]: 4.7% | viability, T/C [27]: 3.37% | viability, T/C [28]: 6.26% | viability, T/C [29]: 3.39% | viability, T/C [30]: 3.71% | viability, T/C [31]: 1.41% | viability, T/C [32]: 1.07% | viability, T/C [33]: 1.65% | viability, T/C [34]: 1% | viability, T/C [35]: 1.01% | viability, T/C [36]: 2.06% | viability, T/C [37]: 0.95% | viability, T/C [38]: 1.01% | viability, T/C [39]: 0.41% | viability, T/C [40]: 1.58% | viability, T/C [41]: 0.37% | viability, T/C [42]: 0.35%

COC1C=CCC(C)C(C)S(=O)(=O)NC(=O)c2ccc3c(c2)N(CC2CCC21)CC1(CCCc2cc(Cl)ccc21)CO3 (stereo not drawn) + CNC(=O)c1ccc(Nc2nc(OC3CCCC3)c3c(-c4ccc5nc(C)oc5c4)c[nH]c3n2)c(OC)c1
IC50 [1]: 6.74 µM | IC50 [2]: 6.73 µM | IC50 [3]: 2.94 µM | IC50 [4]: 1.18 µM | IC50 [5]: 0.466 µM | IC50 [6]: 0.519 µM | viability, T/C [7]: 131% | viability, T/C [8]: 119% | viability, T/C [9]: 109% | viability, T/C [10]: 92.1% | viability, T/C [11]: 74.6% | viability, T/C [12]: 37.2% | viability, T/C [13]: 124% | viability, T/C [14]: 117% | viability, T/C [15]: 109% | viability, T/C [16]: 85.9% | viability, T/C [17]: 72.2% | viability, T/C [18]: 39.1% | viability, T/C [19]: 91.1% | viability, T/C [20]: 78.1% | viability, T/C [21]: 74.3% | viability, T/C [22]: 57.5% | viability, T/C [23]: 52.2% | viability, T/C [24]: 36.4% | viability, T/C [25]: 71.3% | viability, T/C [26]: 65.2% | viability, T/C [27]: 58.8% | viability, T/C [28]: 49.4% | viability, T/C [29]: 45.6% | viability, T/C [30]: 34.4% | viability, T/C [31]: 70.1% | viability, T/C [32]: 59% | viability, T/C [33]: 52.2% | viability, T/C [34]: 45.7% | viability, T/C [35]: 40.4% | viability, T/C [36]: 33.1% | viability, T/C [37]: 59.3% | viability, T/C [38]: 54.4% | viability, T/C [39]: 53% | viability, T/C [40]: 45.9% | viability, T/C [41]: 43.2% | viability, T/C [42]: 34%

CC(C)CC(NC(=O)C(Cc1ccccc1)NC(=O)c1cnccn1)B(O)O (stereo not drawn)
viability, T/C (compound 0.000949 µM): 98.5% and 113% | viability, T/C (compound 0.003 µM): 78.9% and 56.8% | viability, T/C (compound 0.00949 µM): 9.23% and 6.16% | viability, T/C (compound 0.03 µM): 0.73% and 1.24% | viability, T/C (compound 0.0949 µM): 0.59% and 0.71% | viability, T/C (compound 0.3 µM): 0.55% and 1.04% | IC50 (curve of compound): 0.00484 µM and 0.0035 µM

NC(=O)C(=Cn1cnc(-c2cc(C(F)(F)F)cc(C(F)(F)F)c2)n1)c1cncnc1
viability, T/C (compound 0.00949 µM): 83% and 87.8% | viability, T/C (compound 0.03 µM): 63% and 63.2% | viability, T/C (compound 0.0949 µM): 49.2% and 52.4% | viability, T/C (compound 0.3 µM): 28.8% and 28.9% | viability, T/C (compound 0.949 µM): 19.9% and 22.7% | viability, T/C (compound 3 µM): 18.5% and 21.2% | IC50 (curve of compound): 0.0744 µM and 0.0789 µM
